# Assays:
# [1] = Direct ATP hydrolysis by the complex (mass spectroscopy); details: ATP incubated with complex alone
# Source text: There are several potential mechanisms which could lead the observed kinase inhibition ‘readout’ of this screen including, i) direct ATP hydrolysis by the complex(es) and differing Km of the kinases for ATP, and, ii) dephosphorylation of the peptide substrate by the phosphatase activity of the Zn^2+ complex resulting in cycles of peptide phosphorylation by active recombinant enzyme and dephosphorylation by the complex.
# [2] = tested on: HCT116 p53^+/+ cancer cells; assay: Autophagy (CYTO-ID staining, confocal); assay type: cell-based, human; details: 3.125 μM, 40 h
# Method: FIG. 18. The effects of [L2Cu3]^6+, [L2Zn3]^6+ and [L2Mn3]^6+ on cellular vacuole formation and autophagy in the HCT116 p53^+/+ cancer cells. Representative confocal images are shown of HCT116 p53^+/+ cancer cells following 40 h treatment with vehicle control or 3.125 μM [L2Cu3]^6+, [L2Zn3]^6+, or [L2Mn3]^6+.
# Autophagy studies: The effects of 3.125 μM [L2Cu3]^6+, [L2Zn3]^6+ and [L2Mn3]^6+ treatments (40 h) on the induction of cellular vacuoles and autophagy in the HCT116 p53^−/−, HCT116 p53^+/+ and ARPE19 cells are presented in FIGS. 17-19 with representative cell images shown. […] In the ARPE19 cells, levels of autophagy were low with all treatments and similar to basal levels in control-treated cells (FIG. 19).
# HCT116 p53^−/− = assay: Chemosensitivity (MTT, 96 h continuous exposure); assay type: cell-based, human
# Method: FIG. 7. Chemosensitivity response of a panel of human cancer and non-cancer cell lines to 96 h continuous exposure to self-assembling test compounds. a, The potency of compounds tested against cancer (HT-29, DLD-1, HCT116 p53^+/+ and […], PSN1, MiaPaCa2, BxPC3, A549, H460 and GBM1) and non-cancer cells (ARPE-19, MCF10A and NP1). Each value represents the mean IC50±standard deviation from a minimum of three independent experiments. b,c, The selectivity index (SI) for [L2Cu3]^6+ (b) and [L2Zn3]^6+ (c) for the indicated cancer cell lines; SI is defined as the mean IC50 against the particular non-cancer cell line model divided by the mean IC50 against the particular cancer cell line. […] As the SI value is calculated using the mean IC50 values, experimental error is not included in these figures. d,e, IC50 values for the clinically approved platinates (cisplatin, oxaliplatin and carboplatin) and [L2Mn3]^6+ and the corresponding SI results.
# All cell lines used were maintained at low passage in antibiotic-free media and were obtained from ATCC (LGC Standards, Middlesex, UK) unless otherwise stated (Methods). HT29, DLD-1, HCT116 p53^+/+ and HCT116 p53^−/− are all colorectal adenocarcinoma cell lines derived from different individuals and harbor different combinations of oncogenic lesions (except for the HCT116 isogenic cancer cell clones that are genetically identical except for p53 status). PSN-1, BxPC-3 and MiaPaCa2 are pancreatic carcinoma cell lines and A549 and H460 are lung carcinoma cell lines. HT29, DLD-1, PSN-1, BxPC-3, A549 and H460 cell lines were cultured in RPMI-1640 growth media (Sigma) containing 2 mM L-glutamine, 1 mM sodium pyruvate and 10% fetal bovine serum (FBS). HCT116 (p53^+/+ and p53^−/−) and MiaPaCa2 cell lines were cultured in Dulbecco's Modified Eagle's Medium (Sigma), 2 mM L-glutamine and 10% FBS. The ARPE-19 retinal epithelial non-cancer cell line (Dunn et al., 1996) was cultured in DMEM/F12 media (Gibco), 2 mM L-glutamine, 1 mM sodium pyruvate and 10% FBS. The MCF10A non-cancerous human breast epithelial cell line was cultured in Minimal Essential Media Eagle (Sigma), 2 mM L-glutamine, 1 mM sodium pyruvate, 10% FBS and 1×non-essential amino acids (NEAA). NP1 and GBM1 cells were cultured on plasticware coated with poly-L-ornithine (5 μg/ml) and laminin (2.4 μg/ml) (Polson et al., 2018; Da Silva et al., 2019). […]
# [L2M3]^6+ and all the other self-assembling complexes were freshly formed by adding DMSO to individual components mixing together by pipetting. […] Media and MTT were removed and formazan crystals were dissolved in 150 μl of DMSO and the absorbance of the resulting solution determined at 540 nm. […]
Structure (SMILES),hydrolysis of ATP [1],induction of autophagy [2],selectivity index (IC50 non-cancer cells / IC50 cancer cells) (HCT116 p53^−/−; HCT116 p53^−/− compared to ARPE-19),selectivity index (IC50 non-cancer cells / IC50 cancer cells) (HCT116 p53^−/−; HCT116 p53^−/− compared to MCF10A),"IC50 (HCT116 p53^−/−; HCT116 p53^−/−, 96 h, MTT)",fold more active towards HCT116 p53^−/− than HCT116 p53^+/+ (HCT116 p53^−/−; based on 96 h IC50 values)
[Cu+2].[Cu+2].[Cu+2].c1ccc(-c2csc(NCCN(CCNc3nc(-c4ccccn4)cs3)CCNc3nc(-c4ccccn4)cs3)n2)nc1.c1ccc(-c2csc(NCCN(CCNc3nc(-c4ccccn4)cs3)CCNc3nc(-c4ccccn4)cs3)n2)nc1 [[L2Cu3]^6+],little or no hydrolysis of ATP,–,–,–,–,–
[Zn+2].[Zn+2].[Zn+2].c1ccc(-c2csc(NCCN(CCNc3nc(-c4ccccn4)cs3)CCNc3nc(-c4ccccn4)cs3)n2)nc1.c1ccc(-c2csc(NCCN(CCNc3nc(-c4ccccn4)cs3)CCNc3nc(-c4ccccn4)cs3)n2)nc1 [[L2Zn3]^6+],little or no hydrolysis of ATP,barely detectable,over 2000,over 2000,70 ± 13 nM,~6 fold

# From patent US20230322815A1, “NOVEL COMPOUNDS AND THERAPEUTIC USES THEREOF” (University of Huddersfield, priority 2020, published 2023)
